For data set [1], the target named is T1, HbA (Homo sapiens, UniProt P69905).
T1 construct: fresh normal adult whole blood (Hct of 30%); from tissue; host or cells: normal adult whole blood (red blood cells)
The experiment in a line: In vitro time-dependent Hb oxygen equilibrium study using normal whole blood (tonometry). In kind it is cell-based. Particulars: 2 mM, Hct 30%, 37 °C. From the text:
The antisickling activity of aromatic aldehydes is dependent on Schiff-base interaction between the aldehyde moiety and the Hb αVal1 amines (Schiff-base adduct) and the increase in the protein affinity for oxygen[30]–[40]. […] To overcome this pharmacologic limitation, Tucaresol and Voxelotor, two potent antisickling agents utilized a ortho-hydroxyl moiety (relative to the aldehyde group) on the benzaldehyde ring to form intramolecular hydrogen-bond interaction with the aldehyde group to form hemiacetal-like moiety, which led to significant reduction in oxidative metabolism of the aldehyde[28],[50]. […] VZHE-039, however, incorporates this ortho-hydroxyl moiety on the benzene ring, which is expected to increase its oxidative metabolic stability. This was tested by incubating 2 mM of VZHE-039 (with vanillin and TD-7 as controls) with fresh normal adult whole blood (Hct of 30%) at 37 °C as a surrogate measure of oxidative metabolism. At defined time points (1, 4, 8, 12 and 24 h), aliquot samples were drawn, and subsequently analyzed for their P50-shifts relative to the initial P50 value, using three-point tonometry. In parallel, an untreated control sample was also assessed to control for any time-dependent, but drug-independent changes in P50 values. […] These findings confirm the importance of the ortho-hydroxyl group in aromatic aldehydes in preventing or reducing enzymatic metabolism of aldehyde in RBCs.
Normal whole blood samples (hematocrit 30%) in the absence (control) or presence of 2 mM concentration VZHE-039 (solubilized in DMSO) were incubated at 37 °C for 24 h with shaking (at 140 rpm). At 1, 4, 8, 12 and 24 h time intervals, aliquots of this mixture were removed and then subjected to OEC analysis using tonometry as previously described. Vanillin and TD-7 were used as positive controls, while DMSO was tested as negative control. Briefly, the compound-treated blood samples were incubated in IL 237 tonometers (Instrumentation Laboratories, Inc. Lexington, MA) for approximately 10 min at 37 °C, and allowed to equilibrate at oxygen tensions 6, 20, and 40 mmHg. The samples were then aspirated into an ABL 700 Automated Blood Gas Analyzer (Radiometer) to determine the pH, partial pressure of CO2 (pCO2), partial pressure of oxygen (pO2), and Hb oxygen saturation values (SO2). The measured values of pO2 (mmHg) and SO2 at each pO2 value were then subjected to a non-linear regression analysis using the program Scientist (Micromath, Salt Lake City, UT) to estimate P50 as previously reported.

For data set [2], the system named is SS cells. The experiment in a line: Antisickling activity under anoxia (100% N2). It counts as cell-based, human. Conditions: 2 mM, 100% N2 gas, 30 min. The text has this: Therefore, another objective in the targeted design of VZHE-039 was to complement its O2-dependent antisickling activity—common to this class of aromatic aldehydes—with an improved O2-independent antisickling activity through proximity-enhanced auxiliary interactions with the αF-helix. Findings from the VZHE-039 crystallographic studies indicate that we achieved the structural objective of enhanced interactions between the methylhydroxy substituent and the αF-helix. We further asked whether these enhanced interactions would translate to an improvement in the O2-independent antisickling activity—as hypothesized. We therefore explored the potential O2-independent activity of VZHE-039, by testing its antisickling properties under complete deoxygenated/anoxic conditions (i.e., 100% N2). […] For internal control purposes, aliquots from samples used for testing for antisickling studies at 2.5% O2 (see above) were also used for testing the antisickling effect of these compounds under 100% N2 gas, therefore, helping elucidate the antisickling effects due to O2-dependent activity of the compounds. Since this experimental design utilized aliquots of the same samples under different gas conditions, it ensured that the assay was free of any potential errors associated with variability in hematocrit and accuracy in drug concentrations.
We conducted two studies to test the antisickling property of VZHE-039 under anoxia to establish the secondary mechanism of action. In the first study, we conducted antisickling studies as described above and also previously reported (2.5% O2)[33], using 2 mM concentrations of VZHE-039, and the controls vanillin, TD-7 and Voxelotor. After 1 h, aliquot samples were fixed with 2% glutaraldehyde without exposure to air. Then the incubation chamber was opened and exposed to air for 15 min to ensure complete re-oxygenation and reversal of the sickled cells to normal round cells. Reversal was confirmed by microscopy. The incubation chamber was then closed, and the assay was repeated under 100% nitrogen gas for 30 min, at which point aliquots were obtained and fixed. Aliquot samples were then subjected to microscopic morphological analysis of bright field images as previously described. Resulting sickled cells (percentages) were compared across samples, and between aliquots of the same samples that had been obtained either under 2.5% oxygen or 100% nitrogen.

Data set [3] concerns the target T2, HbS (Homo sapiens, UniProt P69905).
T2 construct: whole blood suspensions from subjects with homozygous SCD (Hct of 20%); from tissue; host or cells: whole blood / red blood cells of patients with homozygous SS sickle cell disease; lysate for HPLC and OEC
Details: method as in PMID 30289405. Particulars: previously observed, cited from earlier work.

Data set [4] concerns the target T3, Hb (Homo sapiens, UniProt P69905).
T3 construct: whole blood suspensions from subjects with homozygous SCD (Hct of 20%); from tissue; host or cells: whole blood / red blood cells of patients with homozygous SS sickle cell disease; lysate for HPLC and OEC
Also noted: method as in PMID 30289405. Conditions: previously observed, cited from earlier work.

Data set [5] deals with SS cells. Details: method as in PMID 30289405. Particulars: previously observed, cited from earlier work.
The target of data set [6] is T2, HbS. Kind of data set: Hb modification (HbS adduct formation) by cation-exchange HPLC of lysates from SS cells. In kind it is cell-based. Conditions: for Hb Modification: SS cells, 20% hematocrit, HPLC of hemolysates. The protocol:
(§1) For our previously studied compounds (e.g., INN-312, TD-7, SAJ-310, INN-298) that incorporate methoxyPy substitution to vanillin analogs, we observed a significant increase in functional and biological activity as a result of increased protein interactions[31],[33],[35],[36]. We therefore expected similar effects for VZHE-039, which we tested by following VZHE-039 activity (measured by Hb adduct formation, P50-shift and RBC sickling inhibition) using SS blood. Briefly, we incubated 0.5, 1, and 2 mM concentrations of VZHE-039 with whole blood suspensions from subjects with homozygous SCD (Hct of 20%) under hypoxic conditions (2.5% O2/97.5% N2) at 37 °C for 2 h for expected peak adduct. Aliquot blood samples were drawn into a fixative (2% glutaraldehyde solution), and sickling was assessed by microscopy[31],[33],[35],[36]. Aliquot samples were also subjected to cation-exchange HPLC analyses to assess the degree of Hb modification to the high-affinity adduct form (Hb adduct formation), as well as standard O2 equilibrium curves (OEC) to assess P50-shifts using hemox analyzer[31],[33],[35],[36]. […] The improved potency of Voxelotor has been attributed to reduced binding stoichiometry, i.e. while Voxelotor binds Hb at a 1:1 ratio, VZHE-039 binds Hb at a 2:1 ratio. […] This observation, as will be discussed later is likely due to a meaningful contribution from the novel O2-independent antisickling activity as result of the strong contact with the αF-helix.
(§2) The effect of VZHE-039 on RBC sickling, Hb modification, and Hb oxygen equilibrium was studied utilizing samples from consented individuals with homozygous SCD following previous procedure. Briefly, blood suspended in Hemox buffer and supplemented with glucose and bovine serum albumin, to a final hematocrit of 20% were incubated under air in the absence or presence of 0.5 mM, 1 mM and 2 mM VZHE-039 at 37 °C for 1 h. This was followed by incubating the suspensions under hypoxic conditions (2.5% O2/97.5% N2) at 37 °C for 2 h. Aliquot samples were obtained and fixed with 2% glutaraldehyde solution without exposure to air, and then subjected to microscopic morphological analysis of bright field images (at × 40 magnification) of single layer cells on an Olympus BX40 microscope fitted with an Infinity 2 camera (Olympus), and the coupled Image Capture software. Leftover samples were washed in phosphate-buffer saline, and hemolyzed in hypotonic lysis buffer for subsequent Hb-modification and oxygen equilibrium analyses.
Finally, for the Hb adduct formation studies, the above clarified lysates were subjected to cation-exchange HPLC (Hitachi D-7000 Series, Hitachi Instruments, Inc., San Jose, CA), using a weak cation-exchange column (Poly CAT A: 30 mm × 4.6 mm, Poly LC, Inc., Columbia, MD). A commercial standard consisting of approximately equal amounts of composite HbF, HbA, HbS and HbC (Helena Laboratories, Beaumont, TX), was utilized as the reference for isotypes. The areas of new peaks, representing HbS adducts, were obtained, calculated as percentage fractions of total Hb area, and reported as levels of modified Hb.

For data set [7], the target named is T3, Hb. The experiment in a line: Oxygen equilibrium (P50 shift) of lysates from SS cells, Hemox Analyzer. Conditions: 20% hematocrit. In kind it is cell-based. The protocol: as §1, §2
For the oxygen equilibrium studies, 100 μL aliquot samples from the above clarified lysate were added to 4 mL of 0.1 M potassium phosphate buffer, pH 7.0, in cuvettes and subjected to hemoximetry analysis using a Hemox Analyzer (TCS Scientific Corp.) to determine the P50 values.

The conditions of data set [8]: cited from earlier work.
The conditions of data set [9]: experimental animals and humans; cited from earlier work.
In data set [10] the test system is SS RBCs. The experiment in a line: pO2-dependent degree of sickling in Hemox Analyzer. It counts as cell-based, human. Particulars: 2 mM, Hct 20%. The procedure: In a confirmatory study, a pO2 dependent degree of sickling of VZHE-039 at 1 and 2 mM doses, with Voxelotor as a control was performed using a Hemox analyzer. […] Oksenberg et al.reported similar observations with Voxelotor[28], where the compound lost its potent antisickling activity at low pO2 values.
The second study established pO2 dependent degree of sickling of VZHE-039, with Voxelotor as a control. Concurrently, blood samples, hematocrit 20%, were incubated without any drug (control) or with 1, or 2 mM VZHE-039 at 37 °C for 1 h. A second control sample was incubated with 2 mM Voxelotor. At conclusion, 100 uL aliquots of each suspension were mixed with 2.5 mL Hemox buffer (pH 7.4, supplemented with antifoam), and transferred into the sample chamber of the Hemox Analyzer. Compressed air was then flushed through the sample to ensure complete oxygenation (at 150 mmHg). Nitrogen gas was then introduced into the sample chamber, and 50 uL aliquots were obtained and fixed at defined pO2 values. At conclusion, all fixed samples were subjected to microscopic analysis for their degree of sickling, and results were plotted using Prism Graph Pad software. The experiments were conducted in three replicates on different days, and mean and standard deviation values are reported.

Data set [11] has as its system SS cells. The experiment in a line: Antisickling study with SS cells under hypoxia (2.5% O2). In kind it is cell-based, human. Conditions: Homo sapiens, 20% hematocrit, […] O2, 37 °C, read-out: Sickling Inhibition. The protocol: as §1, §2

Entries after “also recorded” stand apart in the source; their conditions may differ. Like-named read-outs stand apart in the source and are kept apart here.

T3 sequence (P69905 2-142): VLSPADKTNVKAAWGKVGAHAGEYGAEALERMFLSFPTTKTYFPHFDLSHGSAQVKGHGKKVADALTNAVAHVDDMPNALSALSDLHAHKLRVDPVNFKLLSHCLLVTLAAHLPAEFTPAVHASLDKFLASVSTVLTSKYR
T3 sequence (P68871 with tags, fused parts or gaps E7V partner): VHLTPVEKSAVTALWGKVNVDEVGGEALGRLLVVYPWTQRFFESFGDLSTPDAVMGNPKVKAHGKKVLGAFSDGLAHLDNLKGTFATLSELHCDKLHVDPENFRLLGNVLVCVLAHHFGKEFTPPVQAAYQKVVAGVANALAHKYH
T2 sequence (P69905 2-142): as the sequence (P69905 2-142) above
T2 sequence (P68871 with tags, fused parts or gaps E7V partner): as the sequence (P68871 with tags, fused parts or gaps E7V partner) above
T1 sequence (P69905 2-142 limits assumed): as the sequence (P69905 2-142) above
T1 sequence (P68871 2-147 partner limits assumed): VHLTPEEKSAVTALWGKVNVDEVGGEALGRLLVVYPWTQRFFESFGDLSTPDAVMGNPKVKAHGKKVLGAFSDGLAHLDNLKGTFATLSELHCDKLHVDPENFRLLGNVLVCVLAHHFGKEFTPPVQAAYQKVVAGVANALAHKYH

As to `COc1cc(C=O)ccc1O` [Vanillin, vanillin], the “Time course of P50-shift (in words)” value in data set [1] (1-24 h) was “did not have any effects beyond 4 h”. Besides, the “Antisickling effect under anoxia (in words)” value (from here on “Antisickling effect”) in data set [2] is recorded as “showed no effect under anoxic conditions”.

As to `COc1ccc(OCc2cccc(CO)n2)c(C=O)c1` [TD-7], the “Time of maximum effect (P50-shift)” value in data set [1] amounted to 1 h. Moreover, the “Reduction in activity (P50-shift) at 24 h” value in data set [1] (relative to maximum effect) is on record as ~ 45%. Further, the Hb Modification in data set [3] (0.5 mM) is 26%; in data set [3] (1 mM), 45%; in data set [3] (2 mM) it was 74%. The P50-shift in data set [4] (0.5 mM) was 10%; in [4] (1 mM) it was 28%; in [4] (2 mM) it was 48%. Also, the “Antisickling effect” value in data set [2] is “showed some antisickling effect under anoxia, it was significantly less potent than VZHE-039”. The figures for the RBC sickling inhibition in data set [5] (0.5 mM), in [5] (1 mM) and in [5] (2 mM) were 16%, 29% and 85%, respectively.

For the compound `CC(C)n1nccc1-c1ncccc1COc1cccc(O)c1C=O` [Voxelotor, reference compound], the “Hb Modification” value in data set [6] (0.5 mM) was found to be 55%; in [6] (1 mM), 100%. Also, the “Hb modification (in words)” value in [6] (2 mM, samples of the anoxia study) is given as “complete Hb modification to the high-O2-affinity form”. In addition, the entries for the “P50 Shift (ΔP50)” value in [7] (0.5 mM) and in data set [7] (1 mM) were 41% and 80%, respectively. Also, the “Partitioning into the RBC compartment” value in data set [8] is 90%. In addition, the Half-life in [9] is given as greater than 12 h. Also, the “pO2-dependent sickling inhibition (in words)” value in data set [10] is recorded as “completely prevent sickling at high pO2; also recorded: lost this capability at low pO2”. The inhibition (as a rule, the drop in the measured response relative to a control, in per cent) at 500 µM in data set [11] (0.5 mM) was determined as 56%. The inhibition at 1000 µM in data set [11] (1 mM) came out at 98%. In data set [2], the “Antisickling effect” value was “lost its inherent antisickling effects remarkably under anoxic conditions”.

Turning to `O=Cc1c(O)cccc1OCc1ccc(C(=O)O)cc1` [Tucaresol, 4[2-formyl-3-hydroxyphenoxymethyl] benzoic acid], the Half-life in data set [9] is greater than 12 h.
